23 compounds from US20210155604A1, “QUINAZOLINE COMPOUND SERVING AS EGFR TRIPLE MUTATION INHIBITOR AND APPLICATIONS THEREOF” (EAST CHINA UNIVERSITY OF SCIENCE AND TECHNOLOGY, priority 2018, published 2021) can be followed below.

One data set concerns the target EGFR(WT) (Homo sapiens, UniProt P00533). Description: ELISA kinase activity detection, EGFR(WT). The conditions noted are these: ELISA-based EGFR-TK assay, ATP 5 μM; mean ± SD of at least two determinations. The class given is biochemical. The method, then: (§1) Tyrosine kinase: EGFR(WT) • EGFR^T790M/L858R(LR/TM) • EGFR^T790M/L858R/[…](LR/TM/CS)
(§2) ELISA Kinase Activity Detection
Enzyme-Linked Immunosorbent Assay (ELISA) was used to detect the ability of a kinase to phosphorylate a substrate and calculate the inhibitory effect of a compound on the kinase activity. […]
(§3) The main steps of ELISA are listed as follows: the substrate Poly(Glu, Tyr) 4:1 was diluted with potassium ion-free PBS to 2.5 μg/well, incubated at 37° C. for 12-16 h to coat the ELISA plate for use. An ATP solution (final concentration of 5 μM) diluted with a reaction buffer (50 mM HEPES pH 7.4, 20 mM MgCl2, 0.1 mM MnCl2, 0.2 mM Na3VO4, 1 mM DTT) was added to each well. A compound or solvent control was added, and then a kinase was added to start the reaction at 37° C. in a shaker for 1 h. The plate was washed for three times with T-PBS, and 100 μL of antibody PY99 (diluted in T-PBS containing 5 mg/mL BSA, 1: 500) was added, and incubated in a shaker at 37° C. for 0.5 h. After washing the plate with T-PBS, 100 μL of horseradish peroxidase-labeled goat anti-mouse IgG (diluted in T-PBS containing 5 mg/mL BSA, 1: 2000) was added, and incubated in a shaker at 37° C. for 0.5 h. After washing the plate again, a developing liquid containing 0.03% H2O2, 2 mg/mL OPD (0.1 mol/L, in citrate buffer solution pH 5.4) was added at 100 μL/well, and incubated for 1-10 min at 25° C. in darkness. 50 μL/well of 2 M H2SO4 was added to quench the reaction, and read with a wavelength-tunable microplate reader (SpectraMax Plus384, Molecular Devices) at a wavelength of 490 nm. The IC50 value was obtained from the inhibition curve.
(In general: An ELISA detects its analyte on a solid surface through an enzyme-linked reagent.)

A further data set concerns the target EGFR L858R/T790M (LR/TM) (Homo sapiens, UniProt P00533, L858R/T790M). Description: ELISA kinase activity detection, EGFR double mutant. The class given is biochemical. The conditions noted are these: ELISA-based EGFR-TK assay, ATP 5 μM, mean ± SD.
Data set [1] concerns the target T1, EGFR L858R/T790M/C797S (LR/TM/CS) (Homo sapiens, UniProt P00533, C797S/L858R/T790M).
T1 construct: purchased BPS Bioscience
Description: ELISA kinase activity detection, EGFR triple mutant. The class given is biochemical. The conditions noted are these: ELISA-based EGFR-TK assay, ATP 5 μM, mean ± SD. The method, then:
as §1, §2
Enzyme-Linked Immunosorbent Assay (ELISA) was used to detect the ability of a kinase to phosphorylate a substrate and calculate the inhibitory effect of a compound on the kinase activity. The used kinase was EGFR L858R/T790M/C797S (purchased from BPS Bioscience).
as §3

EGFR L858R/T790M (LR/TM), sequence (P00533 25-1210 T790M/L858R): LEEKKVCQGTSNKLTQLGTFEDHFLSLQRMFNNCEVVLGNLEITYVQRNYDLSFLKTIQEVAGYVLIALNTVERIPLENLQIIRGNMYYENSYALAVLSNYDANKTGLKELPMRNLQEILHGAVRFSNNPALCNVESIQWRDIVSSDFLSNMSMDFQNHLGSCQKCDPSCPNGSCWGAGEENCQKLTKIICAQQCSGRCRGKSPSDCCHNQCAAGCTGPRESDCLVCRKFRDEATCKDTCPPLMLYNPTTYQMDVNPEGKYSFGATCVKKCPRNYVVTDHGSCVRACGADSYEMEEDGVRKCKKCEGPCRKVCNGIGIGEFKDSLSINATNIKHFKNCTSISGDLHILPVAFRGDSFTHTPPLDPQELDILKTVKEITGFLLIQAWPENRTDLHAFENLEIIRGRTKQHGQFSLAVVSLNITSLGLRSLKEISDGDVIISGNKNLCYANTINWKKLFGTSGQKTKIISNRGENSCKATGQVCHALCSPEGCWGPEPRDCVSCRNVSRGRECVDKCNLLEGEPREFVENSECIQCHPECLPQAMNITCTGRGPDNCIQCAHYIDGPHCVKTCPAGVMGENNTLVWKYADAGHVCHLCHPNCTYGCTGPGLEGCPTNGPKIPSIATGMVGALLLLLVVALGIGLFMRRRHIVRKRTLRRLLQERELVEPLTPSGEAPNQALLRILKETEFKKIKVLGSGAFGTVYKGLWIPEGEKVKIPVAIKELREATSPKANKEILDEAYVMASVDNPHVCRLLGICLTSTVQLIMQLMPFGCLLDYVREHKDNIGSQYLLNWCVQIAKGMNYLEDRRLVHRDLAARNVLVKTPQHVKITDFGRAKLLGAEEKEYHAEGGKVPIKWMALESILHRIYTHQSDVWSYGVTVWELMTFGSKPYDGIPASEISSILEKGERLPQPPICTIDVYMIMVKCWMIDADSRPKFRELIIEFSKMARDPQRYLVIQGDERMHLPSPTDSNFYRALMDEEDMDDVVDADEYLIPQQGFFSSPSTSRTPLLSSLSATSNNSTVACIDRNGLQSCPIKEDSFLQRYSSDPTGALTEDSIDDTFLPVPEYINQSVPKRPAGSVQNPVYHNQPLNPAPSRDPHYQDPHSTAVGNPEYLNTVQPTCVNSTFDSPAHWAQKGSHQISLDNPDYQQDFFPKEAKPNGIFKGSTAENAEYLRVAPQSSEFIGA
T1 sequence (P00533 25-1210 T790M/C797S/L858R): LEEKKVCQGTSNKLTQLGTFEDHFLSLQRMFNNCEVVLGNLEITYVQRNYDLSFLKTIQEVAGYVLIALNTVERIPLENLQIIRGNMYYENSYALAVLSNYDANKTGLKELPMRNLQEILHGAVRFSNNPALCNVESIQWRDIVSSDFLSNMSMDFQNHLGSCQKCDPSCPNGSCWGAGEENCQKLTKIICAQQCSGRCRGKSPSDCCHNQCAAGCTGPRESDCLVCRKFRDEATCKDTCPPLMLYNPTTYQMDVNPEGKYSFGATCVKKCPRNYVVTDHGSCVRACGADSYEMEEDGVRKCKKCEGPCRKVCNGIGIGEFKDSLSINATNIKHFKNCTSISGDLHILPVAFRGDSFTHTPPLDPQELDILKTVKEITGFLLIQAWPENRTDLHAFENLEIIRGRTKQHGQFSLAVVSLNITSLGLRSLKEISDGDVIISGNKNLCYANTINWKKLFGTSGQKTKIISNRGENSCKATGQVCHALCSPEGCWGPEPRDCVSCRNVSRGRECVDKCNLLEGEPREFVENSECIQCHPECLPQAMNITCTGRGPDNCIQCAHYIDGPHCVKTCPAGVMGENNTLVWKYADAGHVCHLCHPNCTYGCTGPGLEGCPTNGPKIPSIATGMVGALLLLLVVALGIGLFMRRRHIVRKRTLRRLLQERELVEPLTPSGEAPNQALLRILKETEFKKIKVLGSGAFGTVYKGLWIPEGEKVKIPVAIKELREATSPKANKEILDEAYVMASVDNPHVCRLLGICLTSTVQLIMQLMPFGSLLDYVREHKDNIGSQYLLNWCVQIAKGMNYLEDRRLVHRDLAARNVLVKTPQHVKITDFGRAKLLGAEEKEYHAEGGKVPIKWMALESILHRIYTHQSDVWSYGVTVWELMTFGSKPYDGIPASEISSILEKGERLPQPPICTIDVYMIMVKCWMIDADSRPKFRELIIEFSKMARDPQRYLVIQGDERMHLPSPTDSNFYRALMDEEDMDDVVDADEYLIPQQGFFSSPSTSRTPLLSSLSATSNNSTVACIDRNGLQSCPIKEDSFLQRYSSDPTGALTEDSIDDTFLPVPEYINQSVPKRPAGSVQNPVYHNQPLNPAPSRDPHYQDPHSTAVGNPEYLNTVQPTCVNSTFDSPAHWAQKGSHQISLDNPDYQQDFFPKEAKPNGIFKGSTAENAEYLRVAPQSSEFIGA
EGFR(WT), sequence (P00533 25-1210): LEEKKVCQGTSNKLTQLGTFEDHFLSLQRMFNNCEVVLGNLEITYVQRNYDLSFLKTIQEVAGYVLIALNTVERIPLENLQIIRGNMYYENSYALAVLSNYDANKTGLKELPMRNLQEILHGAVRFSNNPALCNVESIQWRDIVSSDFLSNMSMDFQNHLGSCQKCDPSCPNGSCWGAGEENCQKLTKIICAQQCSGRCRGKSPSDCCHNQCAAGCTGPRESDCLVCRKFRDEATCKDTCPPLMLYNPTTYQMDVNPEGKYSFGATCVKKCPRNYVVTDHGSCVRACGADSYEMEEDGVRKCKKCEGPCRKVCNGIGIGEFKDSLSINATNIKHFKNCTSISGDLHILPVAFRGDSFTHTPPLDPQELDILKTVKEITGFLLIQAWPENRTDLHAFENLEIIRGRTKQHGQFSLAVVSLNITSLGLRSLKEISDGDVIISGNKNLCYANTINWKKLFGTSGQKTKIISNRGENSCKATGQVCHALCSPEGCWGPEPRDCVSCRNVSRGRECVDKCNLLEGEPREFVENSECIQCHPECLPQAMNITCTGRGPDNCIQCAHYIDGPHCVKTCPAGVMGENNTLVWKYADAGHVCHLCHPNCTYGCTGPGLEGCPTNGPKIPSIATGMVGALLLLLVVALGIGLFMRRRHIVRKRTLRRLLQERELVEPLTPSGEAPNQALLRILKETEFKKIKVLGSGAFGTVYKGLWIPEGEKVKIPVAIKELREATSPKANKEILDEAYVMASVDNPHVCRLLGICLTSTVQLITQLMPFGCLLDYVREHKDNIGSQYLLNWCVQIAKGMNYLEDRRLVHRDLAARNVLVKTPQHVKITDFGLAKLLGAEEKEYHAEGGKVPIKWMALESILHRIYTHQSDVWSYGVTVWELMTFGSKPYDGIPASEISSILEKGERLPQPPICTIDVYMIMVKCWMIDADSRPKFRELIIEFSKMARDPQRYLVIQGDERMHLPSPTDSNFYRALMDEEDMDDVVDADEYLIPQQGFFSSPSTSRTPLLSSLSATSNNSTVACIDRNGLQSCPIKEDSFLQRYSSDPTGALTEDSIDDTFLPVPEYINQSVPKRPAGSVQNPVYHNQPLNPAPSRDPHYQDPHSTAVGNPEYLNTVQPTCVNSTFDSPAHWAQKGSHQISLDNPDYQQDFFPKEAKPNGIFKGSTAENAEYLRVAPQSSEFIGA

The term IC50 denotes the concentration that gives 50% inhibition. Higher therefore signals lower potency. As to `COc1cc2c(Nc3cc(NC(=O)c4ccccc4)ccc3F)ncnc2cc1OCC1CCN(C)CC1` [Example 2, N-(4-Fluoro-3-((6-methoxy-7-((1-methylpiperidin-4-yl)methoxy)quinazolin-4-yl)amino)phenyl)benamide], the results for the IC50 (at EGFR(WT); against EGFR L858R/T790M (LR/TM); in data set [1]) were 53.7 ± 13.8 nM, > 10000 nM and > 10000 nM, respectively.

In the case of `COc1cc2ncnc(Nc3ccc(NC(=O)C(c4ccccc4)N4Cc5ccccc5C4=O)cc3F)c2cc1OCCCN1CCOCC1` (stereo not drawn) [Example 25, (3-Fluoro-4-((7-methoxy-6-(3-morpholinopropoxy)quinazolin-4-yl)amino)phenyl)-2-(1-oxoisoindolin-2-yl)-2-phenylacetamide], the IC50 on EGFR(WT) was 1.6 ± 0.3 nM; at EGFR L858R/T790M (LR/TM) it was 7.3 ± 1.3 nM; in data set [1] it was 97.5 ± 12.9 nM.

Regarding `COc1cc2c(Nc3ccc(NC(=O)C(c4cc(F)ccc4F)N4Cc5ccccc5C4=O)cc3F)ncnc2cc1OCC1CCN(C)CC1` (stereo not drawn) [Example 28, 2-(2,5-Difluorophenyl)-N-(3-fluoro-4-((6-methoxy-7-((1-methylpiperidin-4-yl)methoxy)quinazolin-4-yl)amino)phenyl)-2-(1-oxoisoindolin-2-yl)acetamide], the results for the IC50 (against EGFR(WT); on EGFR L858R/T790M (LR/TM); in data set [1]) were 2.5 ± 0.8 nM, 35.3 ± 12.1 nM and 27.5 ± 17.7 nM, respectively.

Turning to `COc1cc2c(Nc3ccc(NC(=O)C(C4CCCCC4)N4Cc5ccccc5C4=O)cc3F)ncnc2cc1OCC1CCN(C)CC1` (stereo not drawn) [Example 21, 2-cyclohexyl-N-(3-fluoro-4-((6-methoxy-7-((1-methylpiperidin-4-yl)methoxy)quinazoline-4-yl)amino)phenyl)-2-(1-oxoisoindolin-2-yl)acetamide], the IC50 on EGFR(WT) amounted to 27.1 ± 12 nM; against EGFR L858R/T790M (LR/TM) it was 180 ± 94.9 nM; in data set [1], 361 ± 123 nM.

As a reminder, the melting point is the temperature of the solid-liquid transition. `COc1cc2c(Nc3ccc(NC(=O)C(C)c4ccccc4)cc3F)ncnc2cc1OCC1CCN(C)CC1` (stereo not drawn) [Example 9, N-(3-Fluoro-4-((6-methoxy-7-((1-methylpiperidin-4-yl)methoxy)quinazolin-4-yl)amino)phenyl)-2-phenylpropionamide]: the melting point lay in the range of 199.6 to 199.8 °C. The compound further registered an IC50 against EGFR(WT) of 7.7 ± 1.8 nM. The compound also yielded an IC50 against EGFR L858R/T790M (LR/TM) of 2560 ± 800 nM. The compound also registered an IC50 in data set [1] of 4810 ± 2920 nM.

Consider `COc1cc2c(Nc3ccc(NC(=O)[C@@H](c4ccccc4)N4Cc5ccccc5C4=O)cc3F)ncnc2cc1OCC1CCN(C)CC1` [Example 20, (R)—N-(3-Fluoro-4-((6-methoxy-7-((1-methylpiperidin-4-yl)methoxy)quinazolin-4-yl)amino)phenyl)-2-(1-oxoisoindolin-2-yl)-2-phenylacetamide], for which the IC50 on EGFR(WT) was found to be 3.5 ± 1 nM; at EGFR L858R/T790M (LR/TM), 6.4 ± 1.6 nM; in data set [1] it was 19.2 ± 3.2 nM.

For `COc1cc2c(Nc3ccc(NC(=O)[C@H](c4ccccc4)N4Cc5ccccc5C4=O)cc3F)ncnc2cc1OCC1CCN(C)CC1` [Example 19, (S)—N-(3-Fluoro-4-((6-methoxy-7-((1-methylpiperidin-4-yl)methoxy)quinazolin-4-yl)amino)phenyl)-2-(1-oxoisoindolin-2-yl)-2-phenylacetamide], the IC50 at EGFR(WT) stood at 4.6 ± 2.8 nM; against EGFR L858R/T790M (LR/TM), 8.6 ± 2.1 nM; in data set [1], 7.9 ± 2 nM.

On to `COc1cc2nc(N)nc(Nc3ccc(NC(=O)C(c4ccccc4)N4Cc5ccccc5C4=O)cc3F)c2cc1OC` (stereo not drawn) [Example 27, (4-((2-amino-6,7-dimethoxyquinazolin-4-yl)amino)-3-fluorophenyl)-2-(1-oxoisoindoline-2-yl)-2-phenylacetamide], for which the IC50 is 388 ± 55.3 nM against EGFR(WT), > 10000 nM against EGFR L858R/T790M (LR/TM) and > 10000 nM in data set [1].

Consider `COc1cc2ncnc(Nc3cc(NC(=O)c4ccccc4)ccc3F)c2cc1OC` [Example 16], for which the IC50 on EGFR(WT) is 137 ± 80.2 nM; at EGFR L858R/T790M (LR/TM) it was > 10000 nM; in data set [1], > 10000 nM.

Take `COc1cc2ncnc(Nc3ccc(NC(=O)C(c4ccccc4)N4Cc5ccccc5C4=O)cc3F)c2cc1OCC1CCN(C)CC1` (stereo not drawn) [Example 23]: the results for the IC50 (at EGFR(WT); against EGFR L858R/T790M (LR/TM); in data set [1]) were 0.8 ± 0.3 nM, 2.4 ± 0.5 nM and 18 ± 8.6 nM, respectively.

As for `COc1cc2c(Nc3ccc(NC(=O)C(c4ccccc4)N4Cc5ccccc5C4=O)cc3F)ncnc2cc1OCC1CCN(C)CC1` (stereo not drawn) [Example 12], the IC50 was determined as 1.3 ± 0.3 nM on EGFR(WT), 3.2 ± 0.8 nM against EGFR L858R/T790M (LR/TM) and 14.5 ± 3.3 nM in data set [1].

As to `COc1cc2c(Nc3cc(NC(=O)CC4Cc5ccccc5C4)ccc3F)ncnc2cc1OCC1CCN(C)CC1` [Example 6, 2-(2,3-Dihydro-1H-inden-2-yl)-N-(4-fluoro-3-((6-methoxy-7-((1-methylpiperidin-4-yl)methoxy)quinazolin-4-yl)amino)phenyl)acetamide], the IC50 against EGFR(WT) was 1100 ± 180 nM; on EGFR L858R/T790M (LR/TM) it was 3030 ± 689 nM; in data set [1] it was > 10000 nM.

On to `COc1cc2ncnc(Nc3ccc(NC(=O)C(c4ccccc4)N4Cc5ccccc5C4=O)cc3F)c2cc1OCN1CCN(C)CC1` (stereo not drawn) [Example 24], for which the IC50 against EGFR(WT) amounted to 1 ± 0.2 nM; at EGFR L858R/T790M (LR/TM) it was 4.8 ± 0.7 nM; in data set [1], 19.1 ± 4.6 nM.

As to `COc1cc2c(Nc3ccc(NC(=O)Cc4ccccc4)cc3F)ncnc2cc1OCC1CCN(C)CC1` [Example 3, N-(3-Fluoro-4-((6-methoxy-7-((1-methylpiperidin-4-yl)methoxy)quinazolin-4-yl)amino)phenyl)-2-phenylacetamide], the IC50 against EGFR(WT) was 3.7 ± 1.6 nM; against EGFR L858R/T790M (LR/TM), 7560 ± 1200 nM; in data set [1], > 10000 nM.

With `COc1cc2c(Nc3cc(NC(=O)Cc4ccccc4)ccc3F)ncnc2cc1OCC1CCN(C)CC1` [Example 4, N-(4-Fluoro-3-((6-methoxy-7-((1-methylpiperidin-4-yl)methoxy)quinazolin-4-yl)amino)phenyl)-2-phenylacetamide], the results for the IC50 (against EGFR(WT); at EGFR L858R/T790M (LR/TM); in data set [1]) were 1350 ± 312 nM, > 10000 nM and > 10000 nM, respectively.

As to `COc1cc2c(Nc3ccc(NC(=O)C(c4cccc(F)c4)N4Cc5ccccc5C4=O)cc3F)ncnc2cc1OCC1CCN(C)CC1` (stereo not drawn) [Example 22, N-(3-Fluoro-4-((6-methoxy-7-((1-methylpiperidin-4-yl)methoxy)quinazolin-4-yl)amino)phenyl)-2-(3fluorophenyl)-2-(1-oxoisoindolin-2-yl)acetamide], the results for the IC50 (at EGFR(WT); at EGFR L858R/T790M (LR/TM); in data set [1]) were 2 ± 0.5 nM, 6.7 ± 2.2 nM and 13.4 ± 2.7 nM, respectively.

As for `COc1cc2c(Nc3ccc(NC(=O)c4ccccc4)cc3F)ncnc2cc1OCC1CCN(C)CC1` [Example 1], the figures for the IC50 (against EGFR(WT); against EGFR L858R/T790M (LR/TM); in data set [1]) were 59.9 ± 1.8 nM, 6630 ± 657 nM and > 10000 nM, respectively.

As to `COc1cc2c(Nc3cc(NC(=O)C(c4ccccc4)N4Cc5ccccc5C4=O)ccc3F)ncnc2cc1OCC1CCN(C)CC1` (stereo not drawn) [Example 18], the IC50 at EGFR(WT) came out at 1.3 ± 0.6 nM; on EGFR L858R/T790M (LR/TM), 3.2 ± 1.3 nM; in data set [1] it was 14.5 ± 5.2 nM.

On to `COc1cc2ncnc(Nc3ccc(NC(=O)c4ccccc4)cc3F)c2cc1OC` [Example 15], for which the IC50 (at EGFR L858R/T790M (LR/TM); in data set [1]) was > 10000 nM in each case.

As to `COCCOc1cc2ncnc(Nc3ccc(NC(=O)C(c4ccccc4)N4Cc5ccccc5C4=O)cc3F)c2cc1OCCOC` (stereo not drawn) [Example 26, (4-((6,7-bis(2-methoxyethoxy)quinazolin-4-yl)amino)-3-fluorophenyl)-2-(1-oxoisoindolin-2-yl)-2-phenylacetamide], the IC50 amounted to 0.7 ± 0.1 nM on EGFR(WT), 1.5 ± 0.2 nM on EGFR L858R/T790M (LR/TM) and 8.5 ± 2.6 nM in data set [1].

For `COc1cc2c(Nc3ccc(NC(=O)CC4Cc5ccccc5C4)cc3F)ncnc2cc1OCC1CCN(C)CC1` [Example 5], the IC50 was 68.3 ± 13 nM at EGFR(WT), 1380 ± 235 nM against EGFR L858R/T790M (LR/TM) and > 10000 nM in data set [1].

`COc1cc2ncnc(Nc3ccc(NC(=O)C(c4ccccc4)N4Cc5ccccc5C4=O)cc3F)c2cc1OC` (stereo not drawn) [Example 17]: the IC50 was found to be 16.1 ± 4.8 nM against EGFR(WT), 8.5 ± 0.7 nM against EGFR L858R/T790M (LR/TM) and 37.1 ± 18.8 nM in data set [1].

With `COc1cc2c(Nc3ccc(OCc4ccccc4)cc3)ncnc2cc1OCC1CCN(C)CC1` [Example 7, N-(4-(benzyloxy)phenyl)-6-methoxy-7-((1-methylpiperidin-4-yl)methoxy)quinazolin-4-amine], the results for the IC50 (on EGFR(WT); against EGFR L858R/T790M (LR/TM); in data set [1]) were 2.6 ± 1.3 nM, 4630 ± 825 nM and 5570 ± 1000 nM, respectively.
